Data: patent publication US7648966B2, “Mannose-6-phosphonate compounds for the treatment of inflammatory diseases” (Pharmaxis Pty Limited, priority 2003, dated 2010)
Where “and” joins values, the source holds several entries; their conditions need not be identical. Equal entries are not always repeated.

Tests used:
[1] = test system: passively transferred EAE; assay: Passively transferred experimental autoimmune encephalomyelitis (EAE); type: in vivo, Lewis rats; conditions: for Clinical Scores (individual rats): 45 mg/kg/day by mini-osmotic pump; for Clinical Scores (individual rats) / Mean Score: scale 0 to 5
Procedure: To study the effect of the present agents in vivo on a disease that includes in its pathogenesis the migration of T lymphocytes into a specific tissue, the brain, experiments were performed in the Lewis rat model of passively transferred EAE. MBP-specific T lymphocyte cell lines were generated from the draining LNs of Lewis rats that had been immunized with MBP in CFA essentially according to the method of Ben-Nun et al., 1981, supra. Donor T lymphocytes were generated from female 10 to 12 week old Lewis rats weighing 150 to 200 g. These rats had been injected intradermally in each hind footpad with an emulsion of guinea pig MBP (gpMBP) prepared according to Deibler, G E et al., […]. Biochem. 2:139-165 (1972), incorporated herein by reference) in CFA ([…]). The adjuvant emulsion was prepared by emulsifying equal volumes of a mixture of light mineral oil (Sigma) and a solution of the gpMBP in normal saline (0.5 mg/ml) and Mycobacterium butyricum (4 mg/ml; Difco). Thus, each rat received was 50 μg of MBP and 400 μg of M. butyricum. Approximately 11 days following injection the rats were euthanized and the draining LNs (popliteal and inguinal) were removed aseptically by blunt dissection and placed into lymphocyte culture medium as described above. A single cell suspension was prepared from the LNs as described above for spleen. The cells were washed twice in culture medium and any red blood cells were lysed with ammonium chloride as above. These cells, at concentration of 5×10^6/ml were cultured for 72 hours in the presence of MBP (0.06 mg/ml) at 37° C. in a humidified atmosphere containing 7.5% carbon dioxide. The cells were collected and the lymphoblasts were isolated by centrifugation on a Ficoll (Pharmacia, Uppsala, Sweden) gradient in an identical manner to that described by Ben Nun et al. supra. The fraction containing 90% lymphoblasts was cultured further in complete DMEM to which was added (15% v/v) a culture supernatant containing a mixture of growth factors (supernatant of concanavalin A-stimulated lymphocytes), 10% fetal calf serum, nonessential amino acids (Bio-Lab, Jerusalem, Israel). No antigen (MBP) was added. The cells were originally plated in 100 mm petri dishes at a concentration of 2×10^5 cells/mil and replated every 3 or 4 days. Prior to transfer into Lewis rat recipients, the cells were restimulated with antigen, MBP (0.01 mg/ml), and irradiated syngeneic thymocytes, as antigen-presenting cells, for 4 days. These cultured, stimulated T lymphocytes were highly encephalitogenic: as few as 5×10^5 cells could induced disease in naïve Lewis rats. In a typical experiment, a group of 5 female Lewis rats, approximately 9 weeks old, weighing 110±15 grams was anesthetized with diethyl ether and implanted with mini-osmotic pumps (Alzet 2002, Alza Corp., Palo Alto Calif., USA) containing 1-(2,4,-diimethyl phenyl)-6-phosphono-mannoside dissolved in normal saline at a concentration that delivered the drug at a rate of 45 mg/kg/day. A second group of 5 control animals were implanted under anesthesia with a similar pump containing normal saline. Just prior to recovering from the anesthetic, each animal received 5×10^5 cells of the above encephalitogenic T cell line iv in 0.2 ml of normal saline. […] The severity of EAE for each group of rats was calculated as a Disease Index (DI) which is (for those animals developing disease): [formula] This calculation allows a more complete assessment of the disease by incorporating both speed of onset and clinical severity and duration of the disease. […] In an identically designed experiment, rats were sacrificed on day 6 after T lymphocyte transfer and their spinal cords were harvested for histological assessment. Rats were deeply anesthetized (Nembutal) and perfused with 30 ml saline followed by 60 ml 10% neutral buffered formalin. Spinal cords were removed, fixed for 7 days in 10% formalin and embedded for sectioning. […]

[2] = test system: passively transferred adjuvant-induced arthritis; assay: Passively transferred adjuvant arthritis; type: in vivo, DA rats; conditions: for swelling in the affected joints at the end of the treatment period: controls severe swelling
Procedure: The experiment in this Example was designed to study the effect of the agents of the present invention in vivo on a disease that requires T lymphocyte migration into a specific tissue (synovium). Male DA rats, 8 to 10 week old, were immunized with three 100 μl injections of CFA intradermally at the base of the tail. The CFA was prepared by mixing 8 mg/ml of M. butyricum (Difco Laboratories, USA) that had been ground to a fine powder using a mortar and pestle, in 85% light mineral oil (Sigma, USA) and 15% mannide monooleate (Sigma) and emulsifying this suspension, one part in one part saline. Thus, the final emulsion contained 4 mg/ml of M. butyricum. Ten days after immunization, the rats were euthanized and their spleens removed aseptically. A single cell suspension in lymphocyte culture medium with 10% FCS was prepared as described above and adjusted to a concentration of 2×10^6 cells/ml. Con A was added at a final concentration of 2 μg/ml. The cells were cultured at 37° C. in an atmosphere of 5% carbon dioxide for 72 hours. Groups of 4 or 5 DA rats, 6 to 8 weeks of age were anesthetized with diethyl ether and implanted sc on the flank with Alzet 2002 (“2 week delivery”) or Alzet 2001 (“1 week delivery”) mini-osmotic pumps (Alza Corp., Palo Alto Calif., USA). One treatment group received 1-(2,4,-diimethyl phenyl)-6-phosphono-mannoside in the one week delivery Alzet 2001 mini-osmotic pumps. The drug was delivered at a dose of 25 mg/kg/day. The control group for this experiment received identical mini-osmotic pumps containing normal saline. In a second experiment another group of DA rats received 1-(2,4,-diimethyl phenyl)-6-phosphono-mannoside in the “2 week delivery” Alzet 2002 mini-osmotic pumps. This drug was delivered at a dose of 37 mg/kg/day. Control animals for this group received saline delivered in identical mini-osmotic pumps. While the animals were recovering from anesthesia, the above cultured lymphocytes which had been harvested and washed twice in HBSS were resuspended in normal saline and injected iv (lateral tai vein) into recipient rats, each of which received 75-90×10^6 cells in 0.5 ml. After 5 to 8 days, a characteristic thickening and cutaneous hyperemia of the distal joints of the hind legs became clinically apparent in saline treated control animals. Disease severity was evaluated and graded in each group by daily measurement of the mediolateral widths of both ankle joints. The data were expressed as the mean of the change (compared with width prior to cell injection) in mediolateral ankle width expressed in millimeters (±standard error of the mean).

[3] = 45 mg/kg/day, vs saline controls

Cc1ccc(O[C@H]2O[C@H](CCP(=O)(O)O)[C@@H](O)[C@H](O)[C@@H]2O)c(C)c1
animals that developed disease ([1]; 45 mg/kg/day, control 5/5): 3/5 | DI = Group Disease Index ([1]; 45 mg/kg/day, control group DI 160): 40 | duration of maximum clinical scores ([1]; 45 mg/kg/day, controls two consecutive days): none of the 3 drug treated animals that developed symptoms had maximum clinical scores for more than one day | disease onset [1, 3]: disease onset was delayed | disease severity [1, 3]: disease severity was lower than that observed in the controls | Clinical Scores (individual rats) ([1]; Day 4): 0 | Mean Score ([1]; Day 4, 45 mg/kg/day): 0 | Clinical Scores (individual rats) ([1]; Day 5, listed as 1-(2,4,-dimethyl phenyl)-6-phosphono-mannoside, 45 mg/kg/day): 1 (3×) and 0 (2×) | Mean Score ([1]; Day 5, 45 mg/kg/day): 0.6 | Clinical Scores (individual rats) ([1]; Day 6, listed as 1-(2,4,-dimethyl phenyl)-6-phosphono-mannoside, 45 mg/kg/day): 2 (2×) and 0 (2×) and 1 | Mean Score ([1]; Day 6, 45 mg/kg/day): 1 | Clinical Scores (individual rats) ([1]; Day 7, listed as 1-(2,4,-dimethyl phenyl)-6-phosphono-mannoside, 45 mg/kg/day): 0 (3×) and 1 (2×) | Mean Score ([1]; Day 7, 45 mg/kg/day): 0.4 | lesions/section in the most affected animal ([1]; day 6 after T lymphocyte transfer, histology): no more than 8 lesions/section | average number of spinal cord lesions ([1]; day 6 after T lymphocyte transfer, histology, control approximately 15 lesions/section): 3.5 lesions | difference in disease status of treated versus control animals ([2]; 25 mg/kg/day, end of one week treatment): highly statistically significant difference | swelling in the affected joints at the end of the treatment period ([2]; 25 mg/kg/day, one week delivery Alzet 2001 pump): little swelling | difference in disease status of treated versus control animals ([2]; 37 mg/kg/day, end of two week treatment): highly statistically significant difference | swelling in the affected joints at the end of the treatment period ([2]; 37 mg/kg/day, two week delivery Alzet 2002 pump): little swelling
